Results on 33 compounds are retold here after ChEMBL document CHEMBL2331293, “Attenuating Staphylococcus aureus virulence gene regulation: a medicinal chemistry perspective” (J Med Chem, 2013).

A short description of assay [1]: Inhibition of Staphylococcus aureus AgrC1.
The nature of assay [2]: Activation of Staphylococcus aureus AgrC4.
A short description of assay [3]: Inhibition of Staphylococcus aureus AgrC2.
Assay [4] in a line: Inhibition of Staphylococcus aureus AgrC3.
A short description of assay [5]: Activation of Staphylococcus aureus AgrC1.
Assay [6] can be described thus: Inhibition of Staphylococcus aureus AgrC4.
For another assay, the system named is Staphylococcus aureus. Description: Inhibition of Staphylococcus aureus AgrC1-mediated RNA3 promoter activation at 12 uM.
A short description of assay [7]: Inhibition of Staphylococcus aureus AgrC1-mediated RNA3 promoter activation.

Molecules are shown by their SMILES. Positions of bridges follow the written chain, without caps; N, C: chain ends. Non-standard residues stand in square brackets, D forms with d. Residues, ends and D or L forms follow the SMILES beside them. *: point of attachment. X2 = O=C(c1ccccc1)c1ccc(OCCCC(=O)*)cc1; X1 = O=C(CCCOc1ccc(Cc2ccccc2)cc1)*; NMeF = CN[C@@H](Cc1ccccc1)C(=O)O; NMeL = CN[C@@H](CC(C)C)C(=O)O; NMeS = CN[C@@H](CO)C(=O)O; Abu = CC[C@H](N)C(=O)O; Dap = NC[C@H](N)C(=O)O; Ava = NCCCCC(=O)O; Mpa = O=C(O)CCS

As usually defined, the IC50 is the midpoint of a concentration-inhibition curve. High values mean weaker potency, low ones greater potency. As for `CCCCc1oc2ccccc2c1C(=O)c1ccc(O)cc1`, inhibition in assay [1] was half-maximal at 540 nM (IC50). As a reminder, the EC50 is the concentration that produces a half-maximal response. Lower therefore signals greater potency. With `CC[C@H](C)[C@@H]1NC(=O)[C@H](Cc2ccccc2)NC(=O)[C@H](CC(=O)O)NC(=O)[C@@H](NC(=O)[C@@H](NC(=O)[C@H](CO)NC(=O)[C@@H](N)Cc2ccc(O)cc2)[C@@H](C)O)CSC(=O)[C@H](CCSC)NC1=O` (H-YSTCDFIM; thioester 4-C), the concentration for a half-maximal effect (EC50) worked out at 26000 nM in assay [2] and 28 nM in assay [5]. Further, the IC50 in assay [3] came out at 25 nM; in assay [4], 3 nM. With `CC[C@H](C)[C@@H]1NC(=O)[C@H](Cc2ccccc2)NC(=O)[C@H](CC(=O)O)NC(=O)[C@@H](NC(C)=O)CSC(=O)[C@H](CCSC)NC1=O` (Ac-CDFIM; thioester 1-C), the IC50 in assay [3] is 47 nM; in assay [4] it was 240 nM. The same compound returned an EC50 in assay [5] of 5800 nM. As to `CC(C)c1ccc(NC(=O)C(c2ccc3c(c2)OCO3)N2CCCCC2)cc1` (stereo not given), half-maximal inhibition in assay [4] (IC50) required 250 nM. On the same count and under the same terms, the result for `O=C(Nc1ccc2c(c1)OCO2)C(c1ccccc1)N1CCCCC1` (stereo not given) reads 1260 nM. Consider `CC[C@H](C)[C@@H]1NC(=O)[C@H](Cc2ccccc2)NC(=O)[C@H](Cc2ccc(O)cc2)NC(=O)[C@@H](NC(C)=O)CSC(=O)[C@H](CCSC)NC1=O` (Ac-CYFIM; thioester 1-C), for which the IC50 was found to be 8 nM in assay [3], 930 nM in assay [1], 4100 nM in assay [6] and 10 nM in assay [4]. As to `CC(=O)N[C@H]1CSC(=O)[C@H](Cc2ccccc2)N(C)C(=O)[C@H](CC(C)C)NC(=O)[C@H](CO)NC(=O)[C@H](CO)NC1=O` (Ac-CSSL[NMeF]; thioester 1-C), the IC50 in assay [3] and in assay [1] was greater than 30000 nM each time. Compound `CC1CCCN(C(C(=O)Nc2ccc3c(c2)OCO3)c2ccccc2)C1` (stereo not given) yielded an IC50 in assay [4] of 160 nM.

Regarding `CCCCCCCc1cc(O)c2ccccc2[n+]1[O-]`, the half-maximal inhibitory concentration (IC50) in assay [1] stood at 1300 nM. Turning to `CC(=O)N[C@H]1CSC(=O)[C@H](Cc2ccccc2)NC(=O)[C@H](CC(C)C)N(C)C(=O)[C@H](CO)NC(=O)[C@H](CO)NC1=O` (Ac-CSS[NMeL]F; thioester 1-C), the IC50 in assay [3] and in assay [1] was greater than 30000 nM throughout.

On to `CC(C)c1ccc(S(=O)(=O)c2nnn3c2nc(O)c2ccccc23)cc1` [SAVIRIN], for which the IC50 in assay [1] was less than 1000 nM.

For `CC[C@@H]1NC(=O)[C@@H](NC(=O)[C@@H](NC(=O)[C@H](CO)NC(=O)[C@@H](N)Cc2ccc(O)cc2)[C@@H](C)O)CSC(=O)[C@H](CCSC)NC(=O)[C@H]([C@@H](C)CC)NC(=O)[C@H](Cc2ccccc2)NC1=O` (H-YSTC[Abu]FIM; thioester 4-C), the IC50 in assay [3] was determined as 2.8 nM; in assay [1], 137 nM.

`CC(C)C[C@@H]1NC(=O)[C@H](CO)NC(=O)[C@H](CO)NC(=O)CCSC(=O)[C@H](Cc2ccccc2)N(C)C1=O` ([Mpa]SSL[NMeF]; thioester 1-C): the concentration for half-maximal inhibition (IC50) was found to be 47300 nM in assay [3] and 1680 nM in assay [1].

Consider `CC(=O)N[C@H]1CSC(=O)[C@H](Cc2ccccc2)NC(=O)[C@H](CC(C)C)NC(=O)CCCCNC1=O` (Ac-C[Ava]LF; thioester 1-C), for which the IC50 in assay [3] was 50700 nM; in assay [1], 1140 nM.

On to `O=C(Nc1ccc2c(c1)OCO2)C(c1ccccc1)N1CCC(Cc2ccccc2)CC1` (stereo not given), for which it took 980 nM to reach half-maximal inhibition in assay [4] (IC50). In other words, the sub-micromolar range. Turning to `CC[C@H](C)[C@@H]1NC(=O)[C@H](Cc2ccccc2)NC(=O)[C@H](C)NC(=O)[C@@H](NC(C)=O)CSC(=O)[C@H](CCSC)NC1=O` (Ac-CAFIM; thioester 1-C), the IC50 came to 5 nM in assay [3], 5 nM in assay [1], 5 nM in assay [6] and 0.1 nM in assay [4]. Compound `COc1ccc(NC(=O)C(c2cc3c(cc2[N+](=O)[O-])OCO3)N2CC(C)CC(C)C2)cc1` (stereo not given) gave an IC50 in assay [4] of 1310 nM. In other words, the single-digit micromolar range. Turning to `CC(=O)N[C@H]1CNC(=O)[C@H](Cc2ccccc2)NC(=O)[C@H](CC(C)C)NC(=O)[C@H](CO)NC(=O)[C@H](CO)NC1=O` (Ac-[Dap]SSLF; lactam 1-C), the IC50 stood at 167000 nM in assay [3] and 1390 nM in assay [1]. The like results for `CC(=O)N[C@H]1CSC(=O)[C@H](Cc2ccccc2)NC(=O)[C@H](CC(C)C)NC(=O)[C@H](CO)N(C)C(=O)[C@H](CO)NC1=O` (Ac-CS[NMeS]LF; thioester 1-C) were, in that order, 1050 nM and 319 nM. The like results for `CC[C@H](C)[C@@H]1NC(=O)[C@H](Cc2ccccc2)NC(=O)[C@H](C)NC(=O)[C@@H](NC(=O)[C@@H](NC(=O)[C@H](CO)NC(=O)CCCOc2ccc(Cc3ccccc3)cc2)[C@@H](C)O)CSC(=O)[C@H](CCSC)NC1=O` (X1-STCAFIM; thioester 3-C) were, in that order, 19 nM and 295 nM. The inhibition is the change of the read-out against control, counted positive when it falls. Higher therefore signals a strong effect. The compound `CC1CCCN(C(C(=O)Nc2ccc3c(c2)OCCO3)c2ccccc2)C1` (stereo not given) showed an inhibition with Staphylococcus aureus greater than 90%. For the same compound, the IC50 in assay [4] came to 130 nM; in assay [7], 100 nM. As to `CC[C@H](C)[C@@H]1NC(=O)[C@H](Cc2ccccc2)NC(=O)[C@H](C)NC(=O)[C@@H](NC(=O)[C@@H](NC(=O)[C@H](CO)NC(=O)[C@@H](N)Cc2ccc(O)cc2)[C@@H](C)O)CSC(=O)[C@H](CCSC)NC1=O` (H-YSTCAFIM; thioester 4-C), the IC50 in assay [3] was found to be 8 nM; in assay [1], 5 nM; in assay [6], 3 nM; in assay [4], 0.3 nM. On to `CC(=O)N[C@H]1CSC(=O)[C@H](Cc2ccccc2)NC(=O)[C@H](CC(C)C)NC(=O)[C@H](CO)NC(=O)CNC1=O` (Ac-CGSLF; thioester 1-C), for which the values for the IC50 in assay [3] and in assay [1] were 1160 nM and 189 nM, respectively. In assay [1], `CCOC(=O)c1c(C)oc2cc(-c3cc(Br)c(O)c(Br)c3)ccc12` yielded an IC50 of 780 nM. In assay [4], `CC1CCN(C(C(=O)Nc2ccc(C(C)C)cc2)c2ccc3c(c2)OCO3)CC1` (stereo not given) displayed an IC50 of 720 nM.

Consider `CC[C@H](C)[C@@H]1NC(=O)[C@H](Cc2ccccc2)NC(=O)[C@H](C)NC(=O)[C@@H](NC(=O)[C@@H](NC(=O)[C@H](CO)NC(=O)CCCOc2ccc(C(=O)c3ccccc3)cc2)[C@@H](C)O)CSC(=O)[C@H](CCSC)NC1=O` (X2-STCAFIM; thioester 3-C), for which the IC50 in assay [3] stood at 18 nM; in assay [1], 303 nM.

Regarding `CCc1oc2ccccc2c1C(=O)c1cc(Br)c(O)c(Br)c1` [BENZBROMARONE], the IC50 in assay [1] worked out at 130 nM. For `CC(=O)N[C@H]1CSC(=O)[C@H](Cc2ccccc2)NC(=O)[C@H](CC(C)C)NC(=O)CNC(=O)[C@H](CO)NC1=O` (Ac-CSGLF; thioester 1-C), the IC50 in assay [3] was determined as 194 nM; in assay [1], 40 nM. The compound `CC1CCN(C(C(=O)Nc2ccc3c(c2)OCO3)c2ccccc2)CC1` (stereo not given) came in with an IC50 in assay [4] of 980 nM. As to `CC(=O)N[C@H]1CSC(=O)[C@H](Cc2ccccc2)NC(=O)[C@H](CC(C)C)NC(=O)[C@H](CO)NC(=O)[C@H](CO)N(C)C1=O` (Ac-C[NMeS]SLF; thioester 1-C), the IC50 in assay [3] came to 7880 nM; in assay [1] it was 639 nM. Taken in the same sequence, the figures for `CC(=O)N[C@H]1CSC(=O)[C@H](Cc2ccccc2)NC(=O)[C@H](CC(C)C)NC(=O)CNC(=O)CNC1=O` (Ac-CGGLF; thioester 1-C) were 238 nM and 77 nM.

In assay [1], `CCc1oc2ccccc2c1C(=O)c1ccc(O)cc1` [BENZARONE] had an IC50 of 1290 nM. This counts as single-digit micromolar. On to `CC(=O)N[C@H]1CSC(=O)[C@H](Cc2ccccc2)NC(=O)[C@H](CC(C)C)NC(=O)[C@H](CO)NC(=O)[C@H](CO)NC1=O` (Ac-CSSLF; thioester 1-C), for which the IC50 in assay [3] was found to be 230 nM; in assay [1], 260 nM; in assay [6], 150 nM; in assay [4] it was 4 nM.
